Source: US20200399262A1, “COMPOUNDS FOR INHIBITING PROTEIN DEGRADATION AND METHODS OF USE THEREOF IN THE TREATMENT OF CANCER” (PI Therapeutics Ltd, priority 2018, published 2020)

Columns and labels:
Test in all cases: Cell viability panel, ATPlite 1Step
Format in all cases: cell-based
AU-565 = details: Homo sapiens, AU565, Breast adenocarcinoma, 72 h exposure, read-out: Compound EC50
Method: (§1) Cell viability panel studies. Cells were diluted in the corresponding ATCC recommended medium and dispensed in a 384-well plate, depending on the cell line used, at a density of 200-6400 cells per well. For each used cell line, the optimal cell density was used. Compound was serially diluted and 8 concentration (0.04-32 μM) were added to the cells for 72 h exposure. At t=end, of ATPlite 1Step™ (PerkinElmer) were used to calculate cell viability. Cell lines marked with asterisk were seeded 24 h prior to treatment in 96-well plates at the density range of 5,000-40,000 cells/well, according to duplication rate, in RPMI 1640 medium containing 10% fetal bovine serum and 2 mM L-glutamine. Compounds were diluted from 10 mM DMSO stock and treatment was applied at the range of 0.04-1 μM. Following incubation at 37° C. for 48 hours with increasing concentrations of the compounds, viability was determined with CyQUANT® Direct Assay Kit (Invitrogen). Output intensities were normalized to values after treatment with DMSO alone, and EC50 values were calculated using the absorbance measurements [time zero, (Tz), growth control, (C), plus the test growth at the four drug concentration levels (Ti)] as follows: [(Ti−Tz)/(C−Tz)]×100 for concentrations for which Ti>/=Tz; [(Ti−Tz)/Tz]×100 for concentrations for which Ti−<Tz.

COLO 829 = details: Homo sapiens, Cutaneous melanoma, 72 h exposure, read-out: Compound EC50
Method: as §1

VA-ES-BJ = details: Epithelioid sarcoma, 72 h exposure, read-out: Compound EC50
Method: as §1

A-498 = details: Homo sapiens, A498, Renal cell carcinoma, 72 h exposure, read-out: Compound EC50
Method: as §1

G-361 = details: Homo sapiens, Melanoma, 72 h exposure, read-out: Compound EC50
Method: as §1

SUP-T1 = details: Homo sapiens, T lymphoblastic lymphoma, 72 h exposure, read-out: Compound EC50
Method: as §1

CCF-STTG1 = details: Homo sapiens, Astrocytoma, 72 h exposure, read-out: Compound EC50
Method: as §1

HL-60 = details: Homo sapiens, Acute myeloid leukemia, 72 h exposure, read-out: Compound EC50
Method: as §1

U-2 OS = details: Homo sapiens, U2OS, Osteosarcoma, 72 h exposure, read-out: Compound EC50
Method: as §1

Daoy = details: Homo sapiens, Medulloblastoma, 72 h exposure, read-out: Compound EC50
Method: as §1

U-118 MG = details: Homo sapiens, Astrocytoma, 72 h exposure, read-out: Compound EC50
Method: as §1

TT = details: Homo sapiens, Hereditary thyroid gland medullary carcinoma, 72 h exposure, read-out: Compound EC50
Method: as §1

KU812 = details: Homo sapiens, Chronic myelogenous leukemia, 72 h exposure, read-out: Compound EC50
Method: as §1

SW48 = details: Homo sapiens, Colon adenocarcinoma, 72 h exposure, read-out: Compound EC50
Method: as §1

LS411N = details: Homo sapiens, LS-411N, Cecum adenocarcinoma, 72 h exposure, read-out: Compound EC50
Method: as §1

SW626 = details: Homo sapiens, Colon adenocarcinoma, 72 h exposure, read-out: Compound EC50
Method: as §1

RL = details: Homo sapiens, Diffuse large B-cell lymphoma, 72 h exposure, read-out: Compound EC50
Method: as §1

SHP-77 = details: Homo sapiens, SHP77, Small cell lung carcinoma, 72 h exposure, read-out: Compound EC50
Method: as §1

NCI-H82 = details: Homo sapiens, Small cell lung carcinoma, 72 h exposure, read-out: Compound EC50
Method: as §1

SW837 = details: Homo sapiens, Rectal adenocarcinoma, 72 h exposure, read-out: Compound EC50
Method: as §1

PA-1 = details: Homo sapiens, Ovarian mixed germ cell tumor, 72 h exposure, read-out: Compound EC50
Method: as §1

MIA PaCa-2 = details: Homo sapiens, Pancreatic ductal adenocarcinoma, 72 h exposure, read-out: Compound EC50
Method: as §1

SW480 = details: Homo sapiens, Colon adenocarcinoma, 72 h exposure, read-out: Compound EC50
Method: as §1

PFSK-1 = details: Homo sapiens, Primitive neuroectodermal tumor, 72 h exposure, read-out: Compound EC50
Method: as §1

C-33 A = details: Homo sapiens, Cervical squamous cell carcinoma, 72 h exposure, read-out: Compound EC50
Method: as §1

769-P = details: Homo sapiens, Renal cell carcinoma, 72 h exposure, read-out: Compound EC50
Method: as §1

J82 = details: Homo sapiens, Bladder carcinoma, 72 h exposure, read-out: Compound EC50
Method: as §1

A-172 = details: Homo sapiens, Glioblastoma, 72 h exposure, read-out: Compound EC50
Method: as §1

SK-N-FI = details: Homo sapiens, Neuroblastoma, 72 h exposure, read-out: Compound EC50
Method: as §1

## CN(C)CCCS(=O)(=O)N1C/C(=C\c2ccc(C#N)cc2)C(=O)/C(=C/c2ccc(C#N)cc2)C1 [Compound AA]
AU-565
  EC50: < 300 nM
COLO 829
  EC50: < 300 nM
VA-ES-BJ
  EC50: < 300 nM
A-498
  EC50: 300 to 1000 nM
G-361
  EC50: < 300 nM
SUP-T1
  EC50: < 300 nM
CCF-STTG1
  EC50: < 300 nM
HL-60
  EC50: < 300 nM
U-2 OS
  EC50: < 300 nM
Daoy
  EC50: < 300 nM
U-118 MG
  EC50: < 300 nM
TT
  EC50: 300 to 1000 nM
KU812
  EC50: < 300 nM
SW48
  EC50: 300 to 1000 nM
LS411N
  EC50: 300 to 1000 nM
SW626
  EC50: < 300 nM
RL
  EC50: < 300 nM
SHP-77
  EC50: 300 to 1000 nM
NCI-H82
  EC50: < 300 nM
SW837
  EC50: 300 to 1000 nM
PA-1
  EC50: < 300 nM
MIA PaCa-2
  EC50: 300 to 1000 nM
SW480
  EC50: < 300 nM
PFSK-1
  EC50: < 300 nM
C-33 A
  EC50: < 300 nM
769-P
  EC50: < 300 nM
J82
  EC50: 300 to 1000 nM
A-172
  EC50: < 300 nM
SK-N-FI
  EC50: < 300 nM
